# Source: patent US20240044922A1, “DEVICE AND METHODS FOR MEASURING PLATELET-FIBRIN CLOT CONTRACTION KINETICS” (University of Kentucky Research Foundation, priority 2022, published 2024)
# Values joined by “and” are separate entries in the source; they are usually repeats but may differ in a detail not shown here. Identical values can stand only once. Like-named read-outs stand apart in the source and are kept apart here. Bridge positions count the residues as written; N and C are the ends. Square brackets hold non-standard residues; d marks the D form. Peptide text beside a SMILES is read from it. hArg = N=C(N)NCCCC[C@H](N)C(=O)O; Mpa = O=C(O)CCS
# Tested on: washed mouse platelets
# Assay: Clot contraction assay, time-lapse imaging of washed mouse platelets with thrombin, fibrinogen and CaCl2
# Format: cell-based
# [1] = fibrinogen 62 μg/mL, CaCl2 0.5 mM, thrombin 20 mU/mL
# [2] = fibrinogen 125 μg/mL, CaCl2 0.5 mM, thrombin 20 mU/mL
# [3] = fibrinogen 250 μg/mL, CaCl2 0.5 mM, thrombin 20 mU/mL
# [4] = fibrinogen 500 μg/mL, CaCl2 0.5 mM, thrombin 20 mU/mL
# [5] = fibrinogen 1000 μg/mL, CaCl2 0.5 mM, thrombin 20 mU/mL
# [6] = eptifibatide 50 μM, standard conditions
# [7] = eptifibatide 100 μM, standard conditions
# [8] = eptifibatide 150 μM, standard conditions
# [9] = 1 mM EGTA, thrombin 20 mU/mL, fibrinogen 250 μg/mL
# [10] = CaCl2 0.1 mM, thrombin 20 mU/mL, fibrinogen 250 μg/mL
# [11] = CaCl2 0.5 mM, thrombin 20 mU/mL, fibrinogen 250 μg/mL
# [12] = CaCl2 1 mM, thrombin 20 mU/mL, fibrinogen 250 μg/mL
compound,measurement,setting,value
Fibrinogen,AUC,[1],6.66 AU
same,Average Velocity,[1],0.53 %/min
same,Clot Contraction Extent,[1],53.50%
same,Lag time,[1],46.67 min
same,PHASE 1 % Contraction,[1],2.11%
same,PHASE 1 Rate 1,[1],1.50 ×10^−3 %/min
same,PHASE 1 t1,[1],13.00 min
same,PHASE 2 % Contraction,[1],24.32%
same,PHASE 2 Rate 2,[1],1.19 %/min
same,PHASE 2 t2,[1],28.00 min
same,PHASE 3 % Contraction,[1],43.44%
same,PHASE 3 Rate 3,[1],2.90 ×10^−2 %/min
same,AUC,[2],4.13 AU
same,Average Velocity,[2],1.00 %/min
same,Clot Contraction Extent,[2],98.07%
same,Lag time,[2],26.40 min
same,PHASE 1 % Contraction,[2],2.72%
same,PHASE 1 Rate 1,[2],2.25 ×10^−3 %/min
same,PHASE 1 t1,[2],10.75 min
same,PHASE 2 % Contraction,[2],37.99%
same,PHASE 2 Rate 2,[2],1.66 %/min
same,PHASE 2 t2,[2],30.75 min
same,PHASE 3 % Contraction,[2],57.36%
same,PHASE 3 Rate 3,[2],5.90 ×10^−2 %/min
same,AUC,[3],4.23 AU
same,Average Velocity,[3],0.98 %/min
same,Clot Contraction Extent,[3],96.87%
same,Lag time,[3],21.67 min
same,PHASE 1 % Contraction,[3],3.26%
same,PHASE 1 Rate 1,[3],2.18 ×10^−3 %/min
same,PHASE 1 t1,[3],10.40 min
same,PHASE 2 % Contraction,[3],26.29%
same,PHASE 2 Rate 2,[3],1.50 %/min
same,PHASE 2 t2,[3],29.40 min
same,PHASE 3 % Contraction,[3],67.28%
same,PHASE 3 Rate 3,[3],4.96 ×10^−2 %/min
same,AUC,[4],4.89 AU
same,Average Velocity,[4],0.89 %/min
same,Clot Contraction Extent,[4],88.42%
same,Lag time,[4],17.80 min
same,PHASE 1 % Contraction,[4],3.48%
same,PHASE 1 Rate 1,[4],2.78 ×10^−3 %/min
same,PHASE 1 t1,[4],9.40 min
same,PHASE 2 % Contraction,[4],19.02%
same,PHASE 2 Rate 2,[4],1.10 %/min
same,PHASE 2 t2,[4],26.00 min
same,PHASE 3 % Contraction,[4],65.92%
same,PHASE 3 Rate 3,[4],3.32 ×10^−2 %/min
same,Efficiency of contraction,"fibrinogen 1,000 μg/mL",too high for efficient contraction
same,AUC,[5],6.18 AU
same,Average Velocity,[5],0.69 %/min
same,Clot Contraction Extent,[5],68.91%
same,Lag time,[5],39.80 min
same,PHASE 1 % Contraction,[5],4.20%
same,PHASE 1 Rate 1,[5],3.03 ×10^−3 %/min
same,PHASE 1 t1,[5],11.80 min
same,PHASE 2 % Contraction,[5],10.11%
same,PHASE 2 Rate 2,[5],0.70 %/min
same,PHASE 2 t2,[5],25.40 min
same,PHASE 3 % Contraction,[5],54.53%
same,PHASE 3 Rate 3,[5],1.92 ×10^−2 %/min
same,Fibrinogen concentrations with highest extent and average velocity of contraction,"fibrinogen 62.5 to 1,000 μg/mL",highest at 125 and 250
"N=C(N)NCCCC[C@@H]1NC(=O)CCSSC[C@@H](C(N)=O)NC(=O)[C@@H]2CCCN2C(=O)[C@H](Cc2c[nH]c3ccccc23)NC(=O)[C@H](CC(=O)O)NC(=O)CNC1=O [Eptifibatide, eptifibatide, reference compound] ([Mpa][hArg]GDWPC-NH2; disulfide 1-7)",AUC,,5.51 AU and 6.76 AU and 6.84 AU
same,Average Velocity,[6],0.91 %/min
same,Clot Contraction Extent,[6],89.56%
same,Lag time,[6],29.33 min
same,PHASE 1 % Contraction,[6],5.36%
same,PHASE 1 Rate 1,[6],3.93 ×10^−3 %/min
same,PHASE 1 t1,[6],14.33 min
same,PHASE 2 % Contraction,[6],32.14%
same,PHASE 2 Rate 2,[6],1.96 %/min
same,PHASE 2 t2,[6],43.00 min
same,PHASE 3 % Contraction,[6],52.91%
same,PHASE 3 Rate 3,[6],3.83 ×10^−2 %/min
same,Average Velocity,[7],0.74 %/min
same,Clot Contraction Extent,[7],73.02%
same,Lag time,[7],46.67 min
same,PHASE 1 % Contraction,[7],9.24%
same,PHASE 1 Rate 1,[7],4.00 ×10^−3 %/min
same,PHASE 1 t1,[7],26.00 min
same,PHASE 2 % Contraction,[7],20.75%
same,PHASE 2 Rate 2,[7],1.08 %/min
same,PHASE 2 t2,[7],52.00 min
same,PHASE 3 % Contraction,[7],43.03%
same,PHASE 3 Rate 3,[7],2.20 ×10^−2 %/min
same,Detection of the three phases of contraction,eptifibatide 150 μM,none of the three phases were detectible
same,Average Velocity,[8],0.67 %/min
same,Clot Contraction Extent,[8],66.08%
same,Lag time,[8],50 min
same,Effect on average velocity of contraction,eptifibatide 50 to 150 μM,dose-dependent decrease
same,Effect on extent of contraction,eptifibatide 50 to 150 μM,dose-dependent decrease
same,Increase in lag time,eptifibatide 50 to 150 μM,~4 fold
"O=C(O)CN(CCOCCOCCN(CC(=O)O)CC(=O)O)CC(=O)O [EGTA, reference compound]",AUC,[9],7.83 AU
same,Average Velocity,[9],0.51 %/min
same,Clot Contraction Extent,[9],50.72%
same,Lag time,[9],71.67 min
same,Effect on average contraction velocity,EGTA included,significantly reduced
same,Detection of the three phases of contraction,in the presence of EGTA,none of the three phases was detectible
"O=CC[C@@H](O)[C@H](O)[C@H](O)CO [2DG, 2-deoxyglucose, reference compound]",Reduction of Phase 3 rate,10 mM 2DG,~5 fold
same,AUC,"2DG 5 mM, standard conditions",6.10 AU
same,Average Velocity,"2DG 5 mM, standard conditions",0.74 %/min
same,Clot Contraction Extent,"2DG 5 mM, standard conditions",72.66%
same,Lag time,"2DG 5 mM, standard conditions",23.33 min
same,PHASE 1 % Contraction,"2DG 5 mM, standard conditions",2.68%
same,PHASE 1 Rate 1,"2DG 5 mM, standard conditions",2.00 ×10^−3 %/min
same,PHASE 1 t1,"2DG 5 mM, standard conditions",11.67 min
same,PHASE 2 % Contraction,"2DG 5 mM, standard conditions",16.98%
same,PHASE 2 Rate 2,"2DG 5 mM, standard conditions",0.88 %/min
same,PHASE 2 t2,"2DG 5 mM, standard conditions",30.33 min
same,PHASE 3 % Contraction,"2DG 5 mM, standard conditions",53%
same,PHASE 3 Rate 3,"2DG 5 mM, standard conditions",1.83 ×10^−2 %/min
same,AUC,"2DG 10 mM, standard conditions",7.44 AU
same,Average Velocity,"2DG 10 mM, standard conditions",0.51 %/min
same,Clot Contraction Extent,"2DG 10 mM, standard conditions",50.55%
same,Lag time,"2DG 10 mM, standard conditions",37.00 min
same,PHASE 1 % Contraction,"2DG 10 mM, standard conditions",5.82%
same,PHASE 1 Rate 1,"2DG 10 mM, standard conditions",3.33 ×10^−3 %/min
same,PHASE 1 t1,"2DG 10 mM, standard conditions",23.33 min
same,PHASE 2 % Contraction,"2DG 10 mM, standard conditions",13.04%
same,PHASE 2 Rate 2,"2DG 10 mM, standard conditions",0.69 %/min
same,PHASE 2 t2,"2DG 10 mM, standard conditions",44.33 min
same,PHASE 3 % Contraction,"2DG 10 mM, standard conditions",31.68%
same,PHASE 3 Rate 3,"2DG 10 mM, standard conditions",0.87 ×10^−2 %/min
same,Detection of the three phases of contraction,2DG 25 mM,none of the three phases were detectible
same,AUC,"2DG 25 mM, standard conditions",8.57 AU
same,Average Velocity,"2DG 25 mM, standard conditions",0.24 %/min
same,Clot Contraction Extent,"2DG 25 mM, standard conditions",23.45%
same,Lag time,"2DG 25 mM, standard conditions",99.00 min
same,Effect on average velocity,varying 2DG concentrations,significant inhibitory effects
same,Effect on extent of contraction,varying 2DG concentrations,significant inhibitory effects
same,Effect on lag time,varying 2DG concentrations,prolonged lag time
[Ca+2].[Cl-].[Cl-] [CaCl2],AUC,[10],3.78 AU
same,Average Velocity,[10],0.98 %/min
same,Clot Contraction Extent,[10],97.02%
same,Lag time,[10],15.00 min
same,PHASE 1 % Contraction,[10],2.91%
same,PHASE 1 Rate 1,[10],5.00 ×10^−3 %/min
same,PHASE 1 t1,[10],7.00 min
same,PHASE 2 % Contraction,[10],29.63%
same,PHASE 2 Rate 2,[10],1.51 %/min
same,PHASE 2 t2,[10],27.33 min
same,PHASE 3 % Contraction,[10],64.48%
same,PHASE 3 Rate 3,[10],1.51 ×10^−2 %/min
same,AUC,[11],3.93 AU
same,Average Velocity,[11],0.96 %/min
same,Clot Contraction Extent,[11],95.36%
same,Lag time,[11],15.67 min
same,PHASE 1 % Contraction,[11],3.27%
same,PHASE 1 Rate 1,[11],4.67 ×10^−3 %/min
same,PHASE 1 t1,[11],8.33 min
same,PHASE 2 % Contraction,[11],27.00%
same,PHASE 2 Rate 2,[11],1.43 %/min
same,PHASE 2 t2,[11],28.00 min
same,PHASE 3 % Contraction,[11],65.48%
same,PHASE 3 Rate 3,[11],1.43 ×10^−2 %/min
same,AUC,[12],3.69 AU
same,Average Velocity,[12],0.99 %/min
same,Clot Contraction Extent,[12],98.08%
same,Lag time,[12],17.67 min
same,PHASE 1 % Contraction,[12],5.50%
same,PHASE 1 Rate 1,[12],5.00 ×10^−3 %/min
same,PHASE 1 t1,[12],12.33 min
same,PHASE 2 % Contraction,[12],31.17%
same,PHASE 2 Rate 2,[12],1.87 %/min
same,PHASE 2 t2,[12],30.00 min
same,PHASE 3 % Contraction,[12],61.41%
same,PHASE 3 Rate 3,[12],1.87 ×10^−2 %/min
same,Differences in clot contraction,calcium between 0.1 and 1 mM,limited differences
